In test [1] the target is T1, Axl (Homo sapiens, UniProt P30530).
T1 sequence (P30530 26-894): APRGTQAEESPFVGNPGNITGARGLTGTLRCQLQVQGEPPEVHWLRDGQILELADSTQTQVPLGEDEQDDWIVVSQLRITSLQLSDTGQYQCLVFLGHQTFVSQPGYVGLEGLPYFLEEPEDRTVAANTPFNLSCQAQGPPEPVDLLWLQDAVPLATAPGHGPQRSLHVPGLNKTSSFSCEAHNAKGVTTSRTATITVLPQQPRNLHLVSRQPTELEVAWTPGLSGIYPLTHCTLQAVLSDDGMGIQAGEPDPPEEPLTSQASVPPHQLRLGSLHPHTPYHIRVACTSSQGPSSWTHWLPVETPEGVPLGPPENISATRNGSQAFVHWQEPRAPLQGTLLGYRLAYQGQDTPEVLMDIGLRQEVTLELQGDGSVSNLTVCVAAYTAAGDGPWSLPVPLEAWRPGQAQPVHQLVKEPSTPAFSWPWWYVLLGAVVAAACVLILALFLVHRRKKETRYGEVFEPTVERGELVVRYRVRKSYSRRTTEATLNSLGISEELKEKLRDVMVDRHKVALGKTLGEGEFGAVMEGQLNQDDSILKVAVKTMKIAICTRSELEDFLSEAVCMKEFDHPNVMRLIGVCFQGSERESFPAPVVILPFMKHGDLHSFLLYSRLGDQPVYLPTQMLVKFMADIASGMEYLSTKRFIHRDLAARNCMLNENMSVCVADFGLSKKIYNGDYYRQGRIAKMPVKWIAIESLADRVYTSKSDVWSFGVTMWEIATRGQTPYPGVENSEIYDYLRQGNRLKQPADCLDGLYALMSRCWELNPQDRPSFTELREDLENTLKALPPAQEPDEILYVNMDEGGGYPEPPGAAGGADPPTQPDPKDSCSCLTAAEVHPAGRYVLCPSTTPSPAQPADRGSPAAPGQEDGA
As to the kind of experiment: HTRF KinEASE-TK biochemical potency assay, AXL. Further details: purchased Invitrogen. The note with it: 5 nM AXL, 700 μM ATP, 800 nM TK Substrate-biotin. In a few lines:
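Recombinant human kinase preincubated 1 h at RT with compound, then reacted 2 h at RT with 800 nM biotin-TK substrate and 700 μM ATP (final; 5 nM AXL, 1 nM TYRO3 or MER) in HEPES pH 7.4, MgCl2, BSA, DTT, 1% DMSO. HTRF 665/620 ratio read; percent activity versus DMSO and pre-quenched controls.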
In general terms: Time-resolved FRET reads energy transfer from a long-lived donor to a nearby acceptor.

The target in test [2] is T1, Axl. As to the kind of experiment: Axl NanoBRET intracellular kinase assay (intracellular binding, Cell Binding). Further details: host or cells: HEK-293. The settings on record: HEK-293 cells transfected with Axl-NanoLuc fusion vector; 0.35 μM K-5 NanoBRET tracer. In a few lines:
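Intracellular binding measured as loss of BRET (610 nm/450 nm) when compounds displace 0.35 μM K-5 tracer from Axl-NanoLuc in transfected HEK-293 cells.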
On the technique in general: Bioluminescence resonance energy transfer reports proximity on the nanometre scale.

As to `CC(C)S(=O)(=O)c1ccc(-c2n[nH]c3ncc(-c4ccc5c(c4)CC[C@@H](N4CCCC4)CC5)cc23)cc1` [Example 42, (S)-3-(4-(Isopropylsulfonyl)phenyl)-5-(7-(pyrrolidin-1-yl)-6,7,8,9-tetrahydro-5H-benzo[7]annulen-2-yl)-1H-pyrazolo[3,4-b]pyridine], the IC50 against Axl [1] and on Axl [2] was less than 100 nM each time.

On to `C[C@@H]1CCCN1C1(C)CCc2ccc(-c3cnc4[nH]nc(-c5ccc(S(=O)(=O)C6CCCC6)cc5)c4c3)cc2CC1` (stereo partly drawn) [Example 45, 3-(4-(Cyclopentylsulfonyl)phenyl)-5-(7-methyl-7-((R)-2-methylpyrrolidin-1-yl)-6,7,8,9-tetrahydro-5H-benzo[7]annulen-2-yl)-1H-pyrazolo[3,4-b]pyridine], for which the IC50 – broadly, the concentration at which inhibition is half-maximal – is less than 100 nM at Axl [1] and 100 to 1000 nM at Axl [2].

In the case of `C[C@@H]1CCCN1C1(C)CCc2ccc(-c3cnc4[nH]nc(-c5ccc(S(=O)(=O)C6CCC6)cc5)c4c3)cc2CC1` (stereo partly drawn) [Example 46, 3-(4-(Cyclobutylsulfonyl)phenyl)-5-(7-methyl-7-((R)-2-methylpyrrolidin-1-yl)-6,7,8,9-tetrahydro-5H-benzo[7]annulen-2-yl)-1H-pyrazolo[3,4-b]pyridine], the IC50 at Axl [1] and on Axl [2] was less than 100 nM throughout.

Turning to `Cc1cc(-c2n[nH]c3ncc(-c4ccc5c(c4)CCC(N4CCCC4)CC5)cc23)ccc1C(=O)N1CCNCC1` (centres unmarked) [Example 47, 1-(2-Methyl-4-{5-[7-(pyrrolidin-1-yl)-6,7,8,9-tetrahydro-5H-benzo[7]annulen-2-yl]-1H-pyrazolo[3,4-b]pyridin-3-yl}benzoyl)piperazine], the IC50 at Axl [1] and at Axl [2] was less than 100 nM throughout.

For the compound `Cc1cc(-c2n[nH]c3ncc(-c4ccc5c(c4)CCN(C(=O)C(C)C)CC5)cc23)ccc1C(=O)N1CCNCC1` [Example 48, 2-Methyl-1-(7-{3-[3-methyl-4-(piperazine-1-carbonyl)phenyl]-1H-pyrazolo[3,4-b]pyridin-5-yl}-2,3,4,5-tetrahydro-1H-3-benzazepin-3-yl)propan-1-one], the IC50 is less than 100 nM at Axl [1] and 100 to 1000 nM on Axl [2].

For the compound `Cc1cc(-c2n[nH]c3ncc(-c4ccc5c(c4)CC[C@@H](N4CCCC4)CC5)cc23)cc(C)c1C(N)=O` [Example 49, 2,6-Dimethyl-4-{5-[(7S)-7-(pyrrolidin-1-yl)-6,7,8,9-tetrahydro-5H-benzo[7]annulen-2-yl]-1H-pyrazolo[3,4-b]pyridin-3-yl}benzamide], the IC50 against Axl [1] and at Axl [2] was less than 100 nM throughout.

Consider `Cc1cc(-c2n[nH]c3ncc(-c4ccc5c(c4)CC[C@@H](N4CCCC4)CC5)cc23)cc(Cl)c1C(N)=O` [Example 50, 2-Chloro-6-methyl-4-{5-[(7S)-7-(pyrrolidin-1-yl)-6,7,8,9-tetrahydro-5H-benzo[7]annulen-2-yl]-1H-pyrazolo[3,4-b]pyridin-3-yl}benzamide], for which the IC50 at Axl [1] and at Axl [2] was less than 100 nM in each case.

`C[C@@H]1CCCN1C1(C)CCc2ccc(-c3cnc4[nH]nc(-c5ccc(C(N)=O)c(F)c5)c4c3)cc2CC1` (stereo partly drawn) [Example 52, 2-Fluoro-4-(5-(7-methyl-7-((R)-2-methylpyrrolidin-1-yl)-6,7,8,9-tetrahydro-5H-benzo[7]annulen-2-yl)-1H-pyrazolo[3,4-b]pyridin-3-yl)benzamide]: the IC50 against Axl [1] and on Axl [2] was less than 100 nM each time.

For `COc1cc(-c2n[nH]c3ncc(-c4ccc5c(c4)CCC(C)(N4CCC[C@H]4C)CC5)cc23)ccc1C(N)=O` (stereo partly drawn) [Example 53, 2-Methoxy-4-(5-(7-methyl-7-((R)-2-methylpyrrolidin-1-yl)-6,7,8,9-tetrahydro-5H-benzo[7]annulen-2-yl)-1H-pyrazolo[3,4-b]pyridin-3-yl)benzamide], the IC50 against Axl [1] and on Axl [2] was less than 100 nM each time.

Consider `C[C@@H]1CCCN1C1(C)CCc2ccc(-c3cnc4[nH]nc(-c5ccc(C(N)=O)cc5)c4c3)cc2CC1` (stereo partly drawn) [Example 54, 4-(5-(7-Methyl-7-((R)-2-methylpyrrolidin-1-yl)-6,7,8,9-tetrahydro-5H-benzo[7]annulen-2-yl)-1H-pyrazolo[3,4-b]pyridin-3-yl)benzamide], for which the IC50 against Axl [1] and on Axl [2] was less than 100 nM throughout.

Regarding `Cc1cc(-c2n[nH]c3ncc(-c4ccc5c(c4)CC[C@@H](N4CCCC4)CC5)cc23)cc(C)c1C(=O)N1CCNCC1` [Example 55, 1-(2,6-Dimethyl-4-{5-[(7S)-7-(pyrrolidin-1-yl)-6,7,8,9-tetrahydro-5H-benzo[7]annulen-2-yl]-1H-pyrazolo[3,4-b]pyridin-3-yl}benzoyl)piperazine], the IC50 at Axl [1] and on Axl [2] was less than 100 nM throughout.

For `Cc1cc(-c2n[nH]c3ncc(-c4ccc5c(c4)CC[C@@H](N4CCCC4)CC5)cc23)cc(Cl)c1C(=O)N1CCNCC1` [Example 56, 1-(2-Chloro-6-methyl-4-{5-[(7S)-7-(pyrrolidin-1-yl)-6,7,8,9-tetrahydro-5H-benzo[7]annulen-2-yl]-1H-pyrazolo[3,4-b]pyridin-3-yl}benzoyl)piperazine], the IC50 against Axl [1] and on Axl [2] was less than 100 nM in each case.

As for `C[C@@H]1CCCN1C1(C)CCc2ccc(-c3cnc4[nH]nc(-c5ccc(C(C)(C)O)c(Cl)c5)c4c3)cc2CC1` (stereo partly drawn) [Example 57, 2-[2-Chloro-4-(5-{7-methyl-7-[(2R)-2-methylpyrrolidin-1-yl]-6,7,8,9-tetrahydro-5H-benzo[7]annulen-2-yl}-1H-pyrazolo[3,4-b]pyridin-3-yl)phenyl]propan-2-ol], the IC50 at Axl [1] and at Axl [2] was less than 100 nM each time.

Regarding `C[C@H]1CCCN1C1(C)CCc2ccc(-c3cnc4[nH]nc(-c5ccc(C(C)(C)O)c(Cl)c5)c4c3)cc2CC1` (stereo partly drawn) [Example 58, 2-[2-Chloro-4-(5-{7-methyl-7-[(2S)-2-methylpyrrolidin-1-yl]-6,7,8,9-tetrahydro-5H-benzo[7]annulen-2-yl}-1H-pyrazolo[3,4-b]pyridin-3-yl)phenyl]propan-2-ol], the results for the IC50 on Axl [1] and on Axl [2] were less than 100 nM and 100 to 1000 nM, respectively.

For the compound `CC(C)(O)c1ccc(-c2n[nH]c3ncc(-c4cc5c(cn4)CCC(N4CCCC4)CC5)cc23)cc1Cl` (centres unmarked) [Example 59, 2-(2-Chloro-4-{5-[7-(pyrrolidin-1-yl)-5H,6H,7H,8H,9H-cyclohepta[c]pyridin-3-yl]-1H-pyrazolo[3,4-b]pyridin-3-yl}phenyl)propan-2-ol], the IC50 on Axl [1] and on Axl [2] was less than 100 nM each time.

`CC(C)(O)c1ccc(-c2n[nH]c3ncc(-c4ccc5c(n4)CCC(N4CCCC4)CC5)cc23)cc1Cl` (centres unmarked) [Example 60, 2-(2-Chloro-4-{5-[7-(pyrrolidin-1-yl)-5H,6H,7H,8H,9H-cyclohepta[b]pyridin-2-yl]-1H-pyrazolo[3,4-b]pyridin-3-yl}phenyl)propan-2-ol]: the IC50 was 100 to 1000 nM against Axl [1] and greater than 1000 nM on Axl [2].

As to `CC(C)(O)c1ccc(-c2n[nH]c3ncc(-c4ccc5c(c4)CC4CCC(C5)C4N4CCCC4)cc23)cc1Cl` (centres unmarked) [Example 61, 2-(2-Chloro-4-{5-[13-(pyrrolidin-1-yl)tricyclo[8.2.1.0^3,8]trideca-3,5,7-trien-5-yl]-1H-pyrazolo[3,4-b]pyridin-3-yl}phenyl)propan-2-ol], the IC50 against Axl [1] and on Axl [2] was greater than 1000 nM each time.

For the compound `C[C@@H]1CCCN1C1CCc2ccc(-c3cnc4[nH]nc(-c5ccc(C6(O)CCC6)c(Cl)c5)c4c3)cc2CC1` (stereo partly drawn) [Example 62, 1-[2-Chloro-4-(5-{7-[(2R)-2-methylpyrrolidin-1-yl]-6,7,8,9-tetrahydro-5H-benzo[7]annulen-2-yl}-1H-pyrazolo[3,4-b]pyridin-3-yl)phenyl]cyclobutan-1-ol], the IC50 on Axl [1] and at Axl [2] was less than 100 nM each time.

Regarding `C[C@@H]1CCCN1C1CCc2ccc(-c3cnc4[nH]nc(-c5ccc(S(N)(=O)=O)c(Cl)c5)c4c3)cc2CC1` (stereo partly drawn) [Example 94, 2-Chloro-4-(5-(7-((R)-2-methylpyrrolidin-1-yl)-6,7,8,9-tetrahydro-5H-benzo[7]annulen-2-yl)-1H-pyrazolo[3,4-b]pyridin-3-yl)benzenesulfonamide], the IC50 against Axl [1] and at Axl [2] was less than 100 nM each time.

The values above are taken from patent US20240246967A1, “AXL COMPOUNDS” (ARCUS BIOSCIENCES, INC., priority 2021, published 2024).
